The values that follow come from ChEMBL document CHEMBL1201862, “PubChem BioAssay data set” (2004).

Test systems include XF498; M19-MEL; KM-20L2; DMS-114; DMS-273; LXFL 529; SNB-78; DLD-1; RXF 631.
Assay in all cases: DTP human tumour cell line panel, 48 h

The structures appear in SMILES notation.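 Results reflect a 48-hour exposure of cells in 96-well plates to compound at five concentrations. The concentration for 50% growth inhibition is given as GI50.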 The source made the active and inactive calls. Rule as the data show it: active = GI50 up to about 1.1 µM and inactive = higher.

Regarding `CC1(C)OC(=O)C(=Cc2ccc(O)cc2)C(=O)O1`, the GI50 with XF498, in the experiment with M19-MEL, with KM-20L2, with DMS-114, in the experiment on DMS-273 and in the experiment with LXFL 529 was > 100 µM (inactive) throughout. For the same compound, the GI50 with SNB-78 was > 100 µM (inactive).
With `CCCCCN(CCCCC)C(=O)[C@H](CCC(=O)O)NC(=O)c1cc2ccccc2[nH]1`, the GI50 with XF498 is 44.9 µM (inactive); in the experiment with M19-MEL it was 45.5 µM (inactive); in the experiment with KM-20L2, 55.3 µM (inactive); in the experiment with DMS-114, 52.5 µM (inactive); in the experiment on DLD-1, 38.3 µM (inactive); in the experiment on DMS-273, 49.2 µM (inactive). In addition, the GI50 in the experiment with LXFL 529 is 56.6 µM (inactive); in the experiment on SNB-78, 95.1 µM (inactive).
Consider `O=C(O)\C=C/C=C/C=C/C=C/C(=O)O`, for which the GI50 in the experiment with KM-20L2, in the experiment on DMS-114, in the experiment with DLD-1, with DMS-273, with LXFL 529 and in the experiment on SNB-78 was > 100 µM (inactive) throughout.
`CC1=C(C(=O)Nc2ccc(Cl)c(Cl)c2)C(c2ccco2)C(C(=O)Nc2ccc(Cl)c(Cl)c2)=C(C)N1`: the GI50 was 1.11 µM (active) in the experiment on XF498; 11.8 µM (inactive) with M19-MEL; 12.9 µM (inactive) with RXF 631; 9.16 µM (inactive) in the experiment on DMS-114; 10.3 µM (inactive) in the experiment on DLD-1; 16 µM (inactive) with DMS-273. Also, the GI50 in the experiment on LXFL 529 is 11.9 µM (inactive); in the experiment with SNB-78, 17.3 µM (inactive).
For `CC(=O)N(C(C)=O)C1=C2c3ccccc3N(S(=O)(=O)c3ccccc3)C2n2c(=O)n(-c3ccccc3)c(=O)n2C1` (stereo not given), the GI50 with M19-MEL is 27.1 µM (inactive); in the experiment on KM-20L2, 34.2 µM (inactive); with DLD-1, 32.6 µM (inactive); in the experiment on DMS-273 it was 44.2 µM (inactive); in the experiment with LXFL 529, 39.7 µM (inactive).
Regarding `Nc1cc2c(C3OC(CO)C(O)C3O)n[nH]c2c(=S)[nH]1` (stereo not given), the GI50 in the experiment with XF498, in the experiment on M19-MEL, with KM-20L2, in the experiment with RXF 631, in the experiment with DMS-114 and in the experiment with DLD-1 was > 100 µM (inactive) each time. Further, the GI50 in the experiment on DMS-273, in the experiment on LXFL 529 and with SNB-78 was > 100 µM (inactive) throughout.
For the compound `O=c1nc2sc3ccc4ccccc4c3n2nc1O`, the GI50 is 25.3 µM (inactive) in the experiment with KM-20L2; 75.2 µM (inactive) with DMS-114; 40.9 µM (inactive) in the experiment on DLD-1; 39.8 µM (inactive) in the experiment with DMS-273; 68.1 µM (inactive) with LXFL 529; 70.3 µM (inactive) with SNB-78.
With `O=C1/C(=C/c2ccccc2Cl)COc2ccc(Br)cc21`, the GI50 in the experiment with XF498 was 27.2 µM (inactive); in the experiment on M19-MEL, > 100 µM (inactive); in the experiment with KM-20L2, > 100 µM (inactive); in the experiment on DMS-114 it was 38.3 µM (inactive); in the experiment with DLD-1, 65.9 µM (inactive); with DMS-273, 32.3 µM (inactive). In addition, the GI50 is 63 µM (inactive) in the experiment with LXFL 529 and 43.1 µM (inactive) in the experiment with SNB-78.
As for `Cc1ccc(C)c(N2C(=O)C(=O)C(c3nc4ccccc4s3)/C(=N/NC(=O)NN)C2=O)c1` (stereo not given), the GI50 in the experiment with XF498, in the experiment on M19-MEL, with KM-20L2, with RXF 631, with DMS-114 and in the experiment on DLD-1 was > 100 µM (inactive) each time. The GI50 in the experiment on DMS-273, in the experiment with LXFL 529 and in the experiment with SNB-78 was > 100 µM (inactive) each time.
Turning to `NC(=O)N/N=C(/Cc1nc2ccc(C(=O)c3ccccc3)cc2nc1O)C(=O)Nc1ccc(C(F)(F)F)cc1[N+](=O)[O-]`, the GI50 in the experiment on XF498 was 38.6 µM (inactive); with M19-MEL it was > 100 µM (inactive); in the experiment with KM-20L2, 98.2 µM (inactive); with RXF 631, 47 µM (inactive); in the experiment on DMS-114, 52.1 µM (inactive); in the experiment with DLD-1 it was > 100 µM (inactive). Moreover, the values for the GI50 in the experiment on DMS-273, with LXFL 529 and in the experiment on SNB-78 were 51.9 µM (inactive), 45.5 µM (inactive) and > 100 µM (inactive), respectively.
As for `N#Cc1sc2nc3c(c(-c4ccccc4)c2c1N)CCCC3`, the GI50 in the experiment with XF498 is 37.9 µM (inactive); with M19-MEL it was > 100 µM (inactive); in the experiment with RXF 631, 9.25 µM (inactive); in the experiment with DMS-114, 0.225 µM (active); with DMS-273, 57.9 µM (inactive); in the experiment with LXFL 529, > 100 µM (inactive). Besides, the GI50 in the experiment on SNB-78 was 56 µM (inactive).
Turning to `c1ccc(COc2cccc3cccnc23)cc1`, the GI50 in the experiment with XF498 is 70.8 µM (inactive); in the experiment on M19-MEL, 67.3 µM (inactive); in the experiment with KM-20L2, > 100 µM (inactive); with RXF 631 it was > 100 µM (inactive); in the experiment on DMS-114, 36.3 µM (inactive); with DLD-1, > 100 µM (inactive). For the same compound, in the experiment with LXFL 529, the GI50 was 47.8 µM (inactive).
For `Nc1ccc(/C=C/c2ccnc3ccccc23)cc1`, the GI50 was 31 µM (inactive) in the experiment on M19-MEL; 20.2 µM (inactive) in the experiment on KM-20L2; 15.1 µM (inactive) with DMS-114; 22.9 µM (inactive) with DLD-1; 18.1 µM (inactive) in the experiment with DMS-273; 19.7 µM (inactive) with LXFL 529.
For the compound `CC(=O)OCC1OC(n2cc(I)c(=O)[nH]c2=O)C(OC(C)=O)C(OC(C)=O)C1OC(C)=O` (stereo not given), the GI50 in the experiment with XF498, in the experiment with M19-MEL, in the experiment on KM-20L2, with DMS-114, with DLD-1 and in the experiment on DMS-273 was > 100 µM (inactive) throughout. The GI50 in the experiment with LXFL 529 is > 100 µM (inactive).
For `COC1OC(C)C(OCc2ccccc2)C(OS(=O)(=O)c2ccc(C)cc2)C1OS(=O)(=O)c1ccc(C)cc1` (stereo not given), the GI50 in the experiment with M19-MEL, in the experiment with KM-20L2, with DMS-114, in the experiment with DLD-1, with DMS-273 and in the experiment on LXFL 529 was > 100 µM (inactive) throughout. Also, the GI50 with SNB-78 is > 100 µM (inactive).
Regarding `O=C1NC2(NC(=O)C1=O)Nc1ccccc1S2`, the GI50 in the experiment on KM-20L2 is > 100 µM (inactive); in the experiment on RXF 631, 20 µM (inactive); in the experiment with DMS-114 it was 28.4 µM (inactive); in the experiment on DLD-1, 23.7 µM (inactive); with DMS-273, 42.1 µM (inactive); with LXFL 529 it was 36.6 µM (inactive). Further, the GI50 with SNB-78 is > 67.1 µM (inactive).
As to `N#CCC(=O)Nc1ccccc1O`, the GI50 with XF498, with M19-MEL, in the experiment on KM-20L2, in the experiment on RXF 631, in the experiment with DLD-1 and in the experiment on DMS-273 was > 100 µM (inactive) each time. The GI50 with LXFL 529 and with SNB-78 was > 100 µM (inactive) throughout.
On to `O=[As]O`, for which the GI50 is 17.5 µM (inactive) with XF498; 20.5 µM (inactive) in the experiment on M19-MEL; 48.3 µM (inactive) with KM-20L2; 10.1 µM (inactive) in the experiment on RXF 631; 13.1 µM (inactive) in the experiment on DMS-114; 17.8 µM (inactive) in the experiment with DLD-1. Moreover, the GI50 in the experiment with DMS-273 was 24.2 µM (inactive); with LXFL 529, 16.2 µM (inactive); with SNB-78, 12.6 µM (inactive).
Regarding `CC(c1ccccc1)N1O[C@]12CC[C@@]1(C)C(CCCC13OCCO3)C2` (stereo not given in full), the GI50 is 22.5 µM (inactive) in the experiment on XF498; 23 µM (inactive) in the experiment with M19-MEL; > 100 µM (inactive) in the experiment on KM-20L2; 13.4 µM (inactive) in the experiment with DMS-114; 17.1 µM (inactive) in the experiment on DLD-1; 19.2 µM (inactive) in the experiment with DMS-273. In addition, the GI50 in the experiment with SNB-78 is 20.3 µM (inactive).
`CCc1ccc(/C=C\c2cc(OC)c(OC)c(OC)c2)cc1`: the GI50 in the experiment on M19-MEL was 0.163 µM (active); in the experiment with KM-20L2, 0.0342 µM (active); in the experiment with DMS-114, 0.0508 µM (active); in the experiment with DLD-1, 0.378 µM (active); in the experiment on DMS-273, 0.305 µM (active); with LXFL 529, 0.211 µM (active). Moreover, the GI50 in the experiment on SNB-78 was 0.15 µM (active).
For the compound `O=C(OC[C@H]1O[C@@H](OC(=O)c2cc(O)c(O)c(O)c2)[C@H](OC(=O)c2cc(O)c(O)c(O)c2)[C@@H](OC(=O)c2cc(O)c(O)c(O)c2)[C@@H]1OC(=O)c1cc(O)c(O)c(O)c1)c1cc(O)c(O)c(O)c1` [PENTAGALLOYL GLUCOSE], the GI50 in the experiment on XF498 was 4.85 µM (inactive); with M19-MEL it was 9.14 µM (inactive); in the experiment with KM-20L2, 4.27 µM (inactive); with DMS-114 it was 4.21 µM (inactive); in the experiment with DLD-1, 7 µM (inactive); in the experiment on DMS-273, 1.46 µM (inactive). Also, the GI50 is 11.4 µM (inactive) with LXFL 529 and 9.51 µM (inactive) in the experiment on SNB-78.

What is called GI50 is the concentration that inhibits growth by half.
